This note sets out measurements from PubChem BioAssay AID1794816.

The target in the assay is Solute carrier family 22 member 4 (Homo sapiens) (UniProt Q9H015). The assay can be described thus: SLC22A4 substrate-evoked membrane depolarization, dose response, membrane potential dye, HEK-293 overexpressing cells (AID 1794816). Particulars: HEK-293 SLC22A4 OE, FLIPR membrane potential dye.
Sequence of Solute carrier family 22 member 4 (Homo sapiens) (Q9H015 whole entry, looked up): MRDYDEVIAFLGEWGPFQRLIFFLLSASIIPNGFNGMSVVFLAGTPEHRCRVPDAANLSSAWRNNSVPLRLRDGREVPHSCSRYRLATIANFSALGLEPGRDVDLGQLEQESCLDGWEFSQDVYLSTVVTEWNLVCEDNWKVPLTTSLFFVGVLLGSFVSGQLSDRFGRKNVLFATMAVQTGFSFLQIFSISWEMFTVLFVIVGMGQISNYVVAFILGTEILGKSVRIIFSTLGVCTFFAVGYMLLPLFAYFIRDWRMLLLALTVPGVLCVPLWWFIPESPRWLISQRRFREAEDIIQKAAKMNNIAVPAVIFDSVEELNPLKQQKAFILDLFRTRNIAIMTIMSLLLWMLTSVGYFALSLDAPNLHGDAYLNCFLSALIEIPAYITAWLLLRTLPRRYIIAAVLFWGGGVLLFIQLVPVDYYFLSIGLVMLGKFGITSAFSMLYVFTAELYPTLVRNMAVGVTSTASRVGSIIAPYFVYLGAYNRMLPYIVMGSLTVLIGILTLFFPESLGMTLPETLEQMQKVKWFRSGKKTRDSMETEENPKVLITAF

In the case of `C[N+](C)(C)[C@@H](Cc1c[nH]c(=S)[nH]1)C(=O)[O-]`, the EC50 (usually the concentration at which the effect is half-maximal) was 40 µM.
